Data set [1] is described as follows: Toxicity in SCID mouse xenografted with human A549 cells assessed as body weight loss administered at 80 mg/kg, ip for 28 days relative to control. It counts as organism-based. The conditions noted are these: in vivo, 672 h, time 28 day. On the technique in general: A xenograft is tissue or cells of one species grown in another, often human tumour cells in immunodeficient mice.

Data set [2] deals with NCI-H1373. Nature of the data set: Downregulation of c-MYC level SCID mouse tumor tissue xenografted with human NCI-H1373 cells at 50 mg/kg, ip for 24 hrs by Western blot analysis. It counts as functional, organism-based. The conditions noted are these: Neoplasm.
The test system of data set [3] is A549. Briefly: Induction of apoptosis in human A549 cells assessed as necrotic cells at 0.5 uM for 24 hrs by annexin V-PI staining based flow cytometric analysis (reference value: 1.3%). The format is functional. A general note: A flow cytometer gives signals particle by particle.
Data set [4] concerns NCI-H2347. Nature of the data set: Downregulation of FLIP mRNA expression level in human NCI-H2347 cells at 0.1 to 1 uM for 24 hrs by qRT-PCR analysis. The format is functional, cell-based. The conditions noted are these: dose 0.1-1 µM. A general note: In qPCR the cycle at which signal appears reflects the starting amount.
Data set [5] has as its system NCI-H1792. Nature of the data set: Downregulation of XIAP protein expression level in human NCI-H1792 cells at 1 uM for 24 hrs by […] analysis. The format is functional, cell-based.
In data set [6] the test system is NCI-H1373. Nature of the data set: Induction of cell cycle arrest in human NCI-H1373 cells assessed as accumulation of cells at G2/M phase at 0.25 uM for 24 hrs by Click-iT EdU Alexa Fluor 647 flow cytometric assay kit analysis (reference value: 13%). It counts as functional.
Data set [7] relates to NCI-H1373. Nature of the data set: Induction of TRAIL dependent apoptosis in human NCI-H1373 cells assessed as PARP cleavage by Western blot analysis. The format is functional, cell-based.
The subject of data set [8] is DV-90. Nature of the data set: Downregulation of c-MYC protein expression level in human DV-90 cells at 1 uM for 24 hrs by […] analysis. It counts as functional, cell-based.
For data set [9], the system named is A549. Nature of the data set: Downregulation of XIAP protein expression level in human A549 cells at 1 uM for 24 hrs by […] analysis. The format is functional, cell-based.
Data set [10] deals with DV-90. Briefly: Downregulation of FLIP mRNA expression level in human DV-90 cells at 0.1 to 1 uM for 24 hrs by qRT-PCR analysis. The format is functional, cell-based. As to conditions: dose 0.1-1 µM.
The test system of data set [11] is NCI-H460. Briefly: Induction of apoptosis in human NCI-H460 cells assessed as necrotic cells at 0.5 uM for 24 hrs by annexin V-PI staining based flow cytometric analysis (reference value: 2.7%). It counts as functional.
Data set [12] deals with NCI-H1373. Nature of the data set: Downregulation of c-MYC protein level in human NCI-H1373 cells upto 24 hrs by Western blot analysis. As to conditions: dose 100-5000 nM. It counts as functional, cell-based.
The subject of data set [13] is A549. Briefly: Antiproliferative activity against human A549 cells at 500 to 2500 nM in presence of TNF by cell titre glo assay. It counts as functional, cell-based. As to conditions: dose 500-2500 nM.
For data set [14], the system named is NCI-H1373. Briefly: Downregulation of XIAP protein expression level in human NCI-H1373 cells at 1 uM for 24 hrs by […] analysis. The format is functional, cell-based.
Data set [15] has as its system A549. Briefly: Downregulation of c-MYC mRNA expression level in human A549 cells at 0.1 to 1 uM for 24 hrs by qRT-PCR analysis. The format is functional, cell-based. As to conditions: dose 0.1-1 µM.
For data set [16], the system named is NCI-H1373. Nature of the data set: Induction of apoptosis in human NCI-H1373 cells assessed as early apoptotic cells at 2.5 uM for 24 hrs by annexin V-PI staining based flow cytometric analysis (reference value: 0.6%). It counts as functional.
Data set [17] relates to NCI-H1373. Briefly: Induction of cell cycle arrest in human NCI-H1373 cells assessed as accumulation of cells at S phase at 1 uM for 24 hrs by Click-iT EdU Alexa Fluor 647 flow cytometric assay kit analysis (reference value: 45%). The format is functional.
For data set [18], the system named is NCI-H2347. Nature of the data set: Downregulation of c-MYC protein expression level in human NCI-H2347 cells at 1 uM for 24 hrs by […] analysis. The format is functional, cell-based.
For data set [19], the system named is A549. Nature of the data set: Induction of TRAIL dependent apoptosis in human A549 cells by annexin V-PI staining based flow cytometric analysis. The format is functional, cell-based.
Data set [20] has as its system NCI-H1792. Briefly: Downregulation of XIAP mRNA expression level in human NCI-H1792 cells at 0.1 to 1 uM for 24 hrs by qRT-PCR analysis. As to conditions: dose 0.1-1 µM. It counts as functional, cell-based.
For data set [21], the system named is NCI-H460. Briefly: Induction of apoptosis in human NCI-H460 cells assessed as necrotic cells at 2.5 uM for 24 hrs by annexin V-PI staining based flow cytometric analysis (reference value: 3.2%). The format is functional.
Data set [22] deals with DV-90. Briefly: Induction of cell cycle arrest in human DV-90 cells assessed as accumulation of cells at G0/G1 phase at 0.5 uM for 24 hrs by Click-iT EdU Alexa Fluor 647 flow cytometric assay kit analysis (reference value: 47%). The format is functional.
Data set [23] has as its system DV-90. Nature of the data set: Induction of apoptosis in human DV-90 cells assessed as viable cells at 0.5 uM for 48 hrs by annexin V-PI staining based flow cytometric analysis (reference value: 81.9%). The conditions noted are these: DV-90, 48 h.
In data set [24] the test system is A549. Briefly: Induction of apoptosis in human A549 cells assessed as early apoptotic cells at 2.5 uM for 24 hrs by annexin V-PI staining based flow cytometric analysis (reference value: 0.2%). It counts as functional.
The test system of data set [25] is NCI-H1373. Nature of the data set: Induction of apoptosis in human NCI-H1373 cells assessed as late apoptotic cells at 2.5 uM for 24 hrs by annexin V-PI staining based flow cytometric analysis (reference value: 22.3%). It counts as functional.
The test system of data set [26] is NCI-H1373. Nature of the data set: Induction of apoptosis in human NCI-H1373 cells assessed as viable cells at 2.5 uM for 24 hrs by annexin V-PI staining based flow cytometric analysis (reference value: 71.6%). The format is functional. As to conditions: read-out: Activity.
The test system of data set [27] is NCI-H1373. Nature of the data set: Induction of apoptosis in human NCI-H1373 cells assessed as viable cells at 0.5 uM for 24 hrs by annexin V-PI staining based flow cytometric analysis (reference value: 71.6%). The format is functional. As to conditions: read-out: Activity.
The test system of data set [28] is A549. Briefly: Induction of apoptosis in human A549 cells assessed as viable cells at 0.5 uM for 24 hrs by annexin V-PI staining based flow cytometric analysis (reference value: 97.7%). The format is functional. The conditions noted are these: read-out: Activity.
Data set [29] has as its system DV-90. Nature of the data set: Induction of cell cycle arrest in human DV-90 cells assessed as accumulation of cells at G2/M phase at 0.25 uM for 24 hrs by Click-iT EdU Alexa Fluor 647 flow cytometric assay kit analysis (reference value: 25%). The format is functional.
Data set [30] relates to NCI-H460. Nature of the data set: Induction of cell cycle arrest in human NCI-H460 cells assessed as accumulation of cells at G0/G1 phase at 0.25 uM for 24 hrs by Click-iT EdU Alexa Fluor 647 flow cytometric assay kit analysis (reference value: 45%). It counts as functional.
Data set [31] deals with NCI-H1373. Briefly: Induction of cell cycle arrest in human NCI-H1373 cells assessed as accumulation of cells at G0/G1 phase at 1 uM for 24 hrs by Click-iT EdU Alexa Fluor 647 flow cytometric assay kit analysis (reference value: 45%). The format is functional.
In data set [32] the test system is DV-90. Briefly: Induction of cell cycle arrest in human DV-90 cells assessed as accumulation of cells at S phase at 0.5 uM for 24 hrs by Click-iT EdU Alexa Fluor 647 flow cytometric assay kit analysis (reference value: 30%). The format is functional.
Data set [33] concerns DV-90. Nature of the data set: Induction of cell cycle arrest in human DV-90 cells assessed as accumulation of cells at G2/M phase at 0.5 uM for 24 hrs by Click-iT EdU Alexa Fluor 647 flow cytometric assay kit analysis (reference value: 25%). The format is functional.
In data set [34] the test system is DV-90. Nature of the data set: Induction of cell cycle arrest in human DV-90 cells assessed as accumulation of cells at S phase at 0.25 uM for 24 hrs by Click-iT EdU Alexa Fluor 647 flow cytometric assay kit analysis (reference value: 30%). It counts as functional.

Calls of active or inactive are those of the source. The calls are words filed in the database; no cut-off is given here.

In the case of `Cc1sc2c(c1C)C(c1ccc(Cl)cc1)=N[C@@H](CC(=O)OC(C)(C)C)c1nnc(C)n1-2`, the Activity was 7% in [1]; 1.2% in the data set with A549 [3]; 16% in the data set with NCI-H1373 [6]; 4% in the data set with NCI-H460 [11]; “Dose-Dependent Effect” with NCI-H1373 [12]; 2.9% in the data set on NCI-H1373 [16]. Moreover, the Activity in the data set with NCI-H1373 [17] was determined as 7%. The result in the data set with NCI-H1373 [2], with NCI-H2347 [4], with NCI-H1792 [5], in the data set with NCI-H1373 [7], with DV-90 [8] and with A549 [9] was Active. The result with DV-90 [10], in the data set with A549 [13], with NCI-H1373 [14], in the data set on A549 [15], in the data set on NCI-H2347 [18] and in the data set on A549 [19] was Active. Besides, in the data set on NCI-H1792 [20], the outcome was Active.

With `Cc1sc2c(c1C)C(c1ccc(Cl)cc1)=N[C@@H](CC(=O)Nc1ccc(O)cc1)c1nnc(C)n1-2` [BIRABRESIB], the Activity in the data set on NCI-H460 [21] is 3.9%; with DV-90 [22] it was 56%; with A549 [24], 0.1%; with NCI-H1373 [25], 20.3%. Besides, the values for the viability at 0.5 µM in the data set with DV-90 [23], in the data set with NCI-H1373 [27] and with A549 [28] were 57.6%, 67.4% and 98.1%, respectively. Further, the viability at 2.5 µM in the data set on NCI-H1373 [26] came out at 56.2%.

Regarding `CCNC(=O)C[C@@H]1N=C(c2ccc(Cl)cc2)c2cc(OC)ccc2-n2c(C)nnc21` [MOLIBRESIB], the Activity in the data set on DV-90 [29] stood at 31%; in the data set with NCI-H460 [30], 43%; with NCI-H1373 [31], 50%; in the data set on DV-90 [32], 25%; in the data set on DV-90 [33], 30%; in the data set with DV-90 [34], 22%.

For the origin of these results see ChEMBL document CHEMBL5712891, “Inhibition of BET bromodomain-dependent XIAP and FLIP expression sensitizes KRAS-mutated NSCLC to pro-apoptotic agents” (Cell Death Dis, 2016).
